# Test results as given in patent publication US12077503B2, “Substituted cyclic amides and their use as herbicides” (FMC CORPORATION, priority 2015, dated 2024).
# System: pigweed, palmer (palmer pigweed, Amaranthus palmeri)
# Assay: Test E preemergence
# Type: in vivo
# Conditions: scale 0 to 100
# Method in brief: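 Compound in non-phytotoxic solvent with surfactant is applied preemergence to silt loam soil after sowing, or postemergence to plants 2 to 18 cm tall in peat-based medium. Plants grow in a greenhouse for 14 to 21 d. Each species is then compared with controls and scored visually, 0 (no effect) to 100 (complete control).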
smiles,measurement,setting,value
CN1CC(c2cccc(OC(F)(F)C(F)F)c2)C(C(=O)Nc2cccc(F)c2F)C1=O (stereo not shown) [Compound 392],"Plant response rating: Pigweed, Palmer",31 g ai/ha,0
same,"Plant response rating: Pigweed, Palmer",62 g ai/ha,20
same,"Plant response rating: Pigweed, Palmer",125 g ai/ha,35
same,"Plant response rating: Pigweed, Palmer",250 g ai/ha,90
